The target in experiment [1] is T1, post-proline-cleaving enzyme (PPCE) (Sus scrofa, UniProt P23687).
T1 construct: PPCE used was an enzyme preparation made from swine kidney; from tissue; host or cells: swine kidney, ammonium sulfate fractionation and DEAE-Sephadex chromatography
Nature of the experiment: PPCE-inhibitory activity (substrate Z-Gly-Pro-PNA). The following applies: for IC50: 37° C., 15 minutes, PPCE from swine kidney. It is filed as biochemical, swine. How it is done:
The enzyme-inhibitory activities of these test compounds against PPCE were estimated by adding a substrate compound of the formula [drawing 18] namely, N-benzyloxycarbonyl-glycyl-prolyl-p-nitroanilide (Z-Gly-Pro-PNA) to a solution of an enzyme, then adding to the solution each test compound having the enzyme-inhibiting activity to be assayed, reacting the substrate, the enzyme and the test compounds with each other at 37° C. for 15 minutes and then measuring the consumed amount of the substrate in terms of the determined reduction in the absorbency of a ultraviolet ray of a given wave length which transmitted the reaction solution where the substrate compounds, the enzyme and the enzyme-inhibiting test compound have been reacted with each other. In these tests, PPCE used was an enzyme preparation made from swine kidney and prior to its use, was purified by fractionation with ammonium sulfate and by subsequent chromatography on DEAE-Sephadex agent.

Experiment [2] has as its target angiotension-conversion enzyme (ACE) (Homo sapiens, UniProt P12821). Nature of the experiment: ACE-inhibitory activity (method of Analytical Biochemistry 84, 361 (1978)). It is filed as biochemical. The text has this:
The enzyme-inhibitory activity of the test compounds against ACE were estimated in accordance with a method as described in the literature "Analytical Biochemistry", 84, 361 (1978).

For experiment [3], the system named is experimental amnesia in mice. Briefly: step-down type passive avoidance response test, cycloheximide-induced amnesia in mice. It is filed as in vivo, mouse (male ddy-mice). The following applies: for Residence time: 24 h, max 300 s, control mice 220 ± 37. The method, then: These experiments were performed using male ddy-mice having an average body weight of 25 g as the test animal. A platform in cubic form having a length of 4 cm for each side of the cube was arranged in a cage on the floor of the cage. Each mouse was placed on the platform. An electric current-feeding device had been provided on the floor area of the cage which positioned outside the platform. It was so arranged that whenever the mouse descended onto the floor from the platform, a 60 V electric current was caused to pass through the floor for 0.5 second to shock the mouse so as to have the mouse learn the shocking passage of electric current. Immediately after the mouse's learning, the mouse was subcutaneously administered with 30 mg/kg of cycloheximide so as to induce experimental amnesia. Each test compound had been intraperitoneally administered to the mouse at a time of 15 minutes before the mouse's learing was commenced. Upon an elapsed time of 24 hours after the completion of the mouse's learning for the electric current passage, the mouse treated as above was again placed on the same platform in the same cage under the same conditions, and the residence time of the mouse staying on the platform was measured under a pre-requisit that a maximum residence time as determined was set to be up to 300 seconds.
The results of the experiments for the cycloheximide-induced amnestic mice as treated by the previous intraperitoneal administration of the test compound of this invention are summarized in Table 2 below.

The conditions of experiment [4]: U.S. Pat. No. 3,240,787; cited from earlier work.
For experiment [5] the following is noted: Kokai No. 4228/87; cited from earlier work.
For experiment [6], the system named is enkephalin-degrading enzymes. The settings on record: Kokai No. 4228/87; cited from earlier work.
For experiment [7] the following is noted: Kokai No. 15840/86; U.S. Pat. No. 4,663,342; cited from earlier work.
Experiment [8] has as its system peptidases. The settings on record: Journal of Antibiotics 38, 1629-1630 (1985); cited from earlier work.

The structures appear in SMILES notation. Entries after “also recorded” stand apart in the source; their conditions may differ.

We go through 5 compounds from patent US4929633A, “Actinonin derivatives having physiological activities” (Zaidan Hojin Biseibutsu Kagaku Kenkyu Kai, priority 1987, dated 1990).

angiotension-conversion enzyme (ACE), sequence (P12821 30-1306, species assumed): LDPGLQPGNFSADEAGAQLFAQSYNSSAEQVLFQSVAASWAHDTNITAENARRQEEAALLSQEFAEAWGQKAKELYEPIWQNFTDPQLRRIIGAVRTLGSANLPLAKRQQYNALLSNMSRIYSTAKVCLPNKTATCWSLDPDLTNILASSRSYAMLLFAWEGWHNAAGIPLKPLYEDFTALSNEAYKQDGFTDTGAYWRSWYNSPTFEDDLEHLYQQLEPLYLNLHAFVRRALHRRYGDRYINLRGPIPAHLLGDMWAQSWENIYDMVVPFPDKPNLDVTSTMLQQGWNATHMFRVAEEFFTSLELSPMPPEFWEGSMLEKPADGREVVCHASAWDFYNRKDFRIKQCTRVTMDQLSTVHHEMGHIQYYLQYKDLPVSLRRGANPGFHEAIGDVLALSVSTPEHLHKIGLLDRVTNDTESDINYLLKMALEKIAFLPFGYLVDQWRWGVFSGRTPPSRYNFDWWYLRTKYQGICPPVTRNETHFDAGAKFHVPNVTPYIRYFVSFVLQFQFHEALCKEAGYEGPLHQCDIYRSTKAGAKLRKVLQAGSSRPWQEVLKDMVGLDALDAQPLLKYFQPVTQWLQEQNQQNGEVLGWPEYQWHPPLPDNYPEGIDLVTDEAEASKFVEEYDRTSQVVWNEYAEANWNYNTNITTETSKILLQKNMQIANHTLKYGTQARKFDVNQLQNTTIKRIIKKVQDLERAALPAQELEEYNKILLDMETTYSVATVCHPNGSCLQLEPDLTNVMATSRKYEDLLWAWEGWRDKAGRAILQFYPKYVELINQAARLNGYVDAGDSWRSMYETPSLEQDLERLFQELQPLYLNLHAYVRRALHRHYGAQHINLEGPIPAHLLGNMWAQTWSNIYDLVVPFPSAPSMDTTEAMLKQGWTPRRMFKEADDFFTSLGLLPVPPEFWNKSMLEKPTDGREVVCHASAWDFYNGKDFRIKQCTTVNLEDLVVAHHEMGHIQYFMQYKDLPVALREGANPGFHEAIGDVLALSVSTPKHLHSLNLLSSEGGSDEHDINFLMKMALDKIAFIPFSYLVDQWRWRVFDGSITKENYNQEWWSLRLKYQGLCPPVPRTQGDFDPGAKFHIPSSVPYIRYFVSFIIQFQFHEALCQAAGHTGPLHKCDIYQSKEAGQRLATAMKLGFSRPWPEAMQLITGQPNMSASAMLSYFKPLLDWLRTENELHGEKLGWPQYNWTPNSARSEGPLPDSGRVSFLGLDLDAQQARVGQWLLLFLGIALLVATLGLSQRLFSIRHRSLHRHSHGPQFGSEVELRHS
T1 sequence (P23687 whole entry): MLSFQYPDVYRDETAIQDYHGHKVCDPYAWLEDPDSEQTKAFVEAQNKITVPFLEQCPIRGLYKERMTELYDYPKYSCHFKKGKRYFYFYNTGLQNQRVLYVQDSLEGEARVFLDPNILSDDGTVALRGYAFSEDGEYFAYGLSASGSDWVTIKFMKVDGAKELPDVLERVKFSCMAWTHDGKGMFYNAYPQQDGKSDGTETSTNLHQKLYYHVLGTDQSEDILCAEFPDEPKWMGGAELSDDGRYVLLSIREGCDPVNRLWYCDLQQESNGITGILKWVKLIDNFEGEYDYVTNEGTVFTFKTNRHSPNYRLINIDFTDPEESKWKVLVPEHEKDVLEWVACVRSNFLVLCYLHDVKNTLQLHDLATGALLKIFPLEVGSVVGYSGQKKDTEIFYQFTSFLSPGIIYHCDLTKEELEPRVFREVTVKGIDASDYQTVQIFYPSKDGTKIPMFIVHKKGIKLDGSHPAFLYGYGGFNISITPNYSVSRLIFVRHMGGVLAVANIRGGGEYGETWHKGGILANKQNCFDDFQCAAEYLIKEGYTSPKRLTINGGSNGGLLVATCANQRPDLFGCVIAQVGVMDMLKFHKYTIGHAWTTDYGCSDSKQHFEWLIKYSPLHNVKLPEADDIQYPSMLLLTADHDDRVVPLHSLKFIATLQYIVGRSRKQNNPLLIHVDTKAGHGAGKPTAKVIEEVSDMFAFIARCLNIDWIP

Regarding `CCCCC[C@H](CC(=O)O)C(=O)N[C@H](C(=O)N1CCC[C@H]1CO)C(C)C` [Compound of the Formula (III), (2S)-2-pentylsuccinyl-L-valyl-L-prolinol], the IC50 in experiment [1] and in experiment [2] was over 135 µM in each case.
Take `CCCCC[C@H](CC(=O)OCC)C(=O)N[C@H](C(=O)N1CCC[C@H]1C=O)C(C)C` [Example 2, (2S)-3-Ethoxycarbonyl-2-pentylpropionyl-L-valyl-L-prolinal]: the “PPCE-inhibitory activity (in words)” value in experiment [1] is recorded as “strong PPCE-inhibitory activity”. For the same compound, the values for the IC50 in experiment [1] and in experiment [2] were 0.0555 µM and over 126 µM, respectively. The “ACE-inhibitory activity (in words)” value in experiment [2] is listed as “no enzyme-inhibitory activity against ACE”. Also, the Residence time in experiment [3] (3 mg/kg i.p. 15 min before learning, cycloheximide 30 mg/kg s.c., n=9, cycloheximide alone 114 ± 26) stood at 188 ± 35 s; in experiment [3] (10 mg/kg i.p. 15 min before learning, cycloheximide 30 mg/kg s.c., n=9, cycloheximide alone 114 ± 26), 180 ± 26 s. In addition, the “therapeutic effects to treat the experimental amnesia (in words)” value in experiment [3] (cycloheximide-induced amnesia, mice) is “marked therapeutic effects”.
For the compound `C[C@@H]1C[C@@H]([C@H](O)CC2CC(=O)NC(=O)C2)C(=O)[C@@H](C)C1` [cycloheximide], the Residence time in experiment [3] (cycloheximide alone (comparative), 30 mg/kg s.c. after learning, n=10) worked out at 114 ± 26 s.
As for `CCCCC[C@H](CC(=O)O)C(=O)N[C@H](C(=O)N1CCC[C@H]1C=O)C(C)C` [Example 1, (2S)-2-pentylsuccinyl-L-valyl-L-prolinal], the IC50 (usually the midpoint of a concentration-inhibition curve) was 0.0841 µM in experiment [1] and over 136 µM in experiment [2].
Consider `CCCCC[C@H](CC(=O)NO)C(=O)N[C@H](C(=O)N1CCC[C@H]1CO)C(C)C` [Actinonin], for which, in experiment [4], the “antibacterial activity (in words)” value is listed as “antibacterial activity”. Also, the “anodyne activity (in words)” value in experiment [5] was “anodyne activity”. Also, in experiment [1], the “PPCE-inhibitory activity (in words)” value is recorded as “medium enzyme-inhibitory activity; also recorded: medium enzyme-inhibitory activities” and half-maximal inhibition (IC50) was put at 77.8 µM. Also, the “inhibition of the enkephalin-degrading enzymes (in words)” value in experiment [6] is reported as “can inhibit the enkephalin-degrading enzymes”. In experiment [7], the “immunopotentiating activity (in words)” value is “immunopotentiating activity”. In experiment [2], the “ACE-inhibitory activity (in words)” value is reported as “medium enzyme-inhibitory activity; also recorded: medium enzyme-inhibitory activities” and half-maximal inhibition (IC50) required 37.9 µM. Further, the “inhibition of peptidases (in words)” value in experiment [8] was “inhibit a wide variety of peptidases”.
